Measured values as given in article PMC6427567, “Discovery of novel coumarin derivatives as potent and orally bioavailable BRD4 inhibitors based on scaffold hopping” (Journal of Enzyme Inhibition and Medicinal Chemistry, 2019).

Legend:
[1] = target: T1, BRD4-full length: recombinant human bromodomain containing protein 4 (bromodomain 1 and 2; aa 2–1362) (Homo sapiens, UniProt O60885); assay: BRD4 binding assay (AlphaScreen); conditions: for IC50 / BRD4 binding activity in words: AlphaScreen assay; for LE (Ligand Efficiency): LE = 1.4 (pIC50/heavy atoms)
T1 construct: (bromodomain 1 and 2; aa 2–1362; Genbank Accesstion # NM_058243); host or cells: Sf9 insect cells
Protocol: The binding affinity was evaluated by a using AlphaScreen technology […] assay. The biotinylated peptide binding to the reader domain of His-tagged protein is monitored by the singlet oxygen transfer from the Streptavidin-coated donor beads to the AlphaScreen Ni-chelate acceptor beads. Reagent:Reaction buffer:50 mM Hepes, pH7.5, 100 mM NaCl, 0.05% CHAPS, 0.1% BSA, and 1% DMSO (the final DMSO concentration may different depending on compound stock and test concentrations). […] MW = 156.5 kDa. […] Reaction procedure: (1) Deliver 2.5× BRD in wells of reaction plate except No BRD control wells. Add buffer instead. (2) Deliver compounds in 100% DMSO into the BRD mixture by Acoustic technology (Echo550; nanoliter range). Spin down and pre-incubation for 30 min. (3) Deliver 5 × Ligand. Spin and shake. (4) Incubate for 30 min at room temperature with gentle shaking. (5) Deliver 5× donor beads. Spin and shake. (6) Deliver 5 × acceptor beads. Spin and shake. Then gentle shaking in the dark for 60 min. (7) Alpha measurement (Ex/Em = 680/520–620 nm) in Enspire.

[2] = set-up: method as in PMID 23095041; conditions: cited from earlier work

Row | Structure (SMILES) | IC50 [1] | LE (Ligand Efficiency) [1] | further results
1 | O=c1ccc2cc(NS(=O)(=O)c3ccccc3)ccc2o1 [Compound 1, N-(2-oxo-2H-chromen-6-yl)benzenesulphonamide] | 6.59 µM | 0.35 | 
2 | O=c1ccc2cc(NS(=O)(=O)C3CCCCC3)ccc2o1 [Compound 2, N-(2-oxo-2H-chromen-6-yl)cyclohexanesulphonamide] | 19 µM | 0.31 | 
3 | O=c1ccc2cc(NS(=O)(=O)C3CCCC3)ccc2o1 [Compound 3, N-(2-oxo-2H-chromen-6-yl)cyclopentanesulphonamide] | 17.9 µM | 0.33 | 
4 | CCCS(=O)(=O)Nc1ccc2oc(=O)ccc2c1 [Compound 4, N-(2-oxo-2H-chromen-6-yl)propane-1-sulphonamide] | 38.5 µM | 0.34 | 
5 | CCCCS(=O)(=O)Nc1ccc2oc(=O)ccc2c1 [Compound 5, N-(2-oxo-2H-chromen-6-yl)butane-1-sulphonamide] | 30 µM | 0.33 | 
6 | O=c1ccc2cc(NS(=O)(=O)c3ccc(Cl)cc3)ccc2o1 [Compound 6, 4-chloro-N-(2-oxo-2H-chromen-6-yl)benzenesulphonamide] | 2.97 µM | 0.34 | 
7 | COc1ccc(S(=O)(=O)Nc2ccc3oc(=O)ccc3c2)cc1 [Compound 7, 4-methoxy-N-(2-oxo-2H-chromen-6-yl)benzene sulphonamide] | 7.31 µM | 0.33 | 
8 | CC(C)(C)c1ccc(S(=O)(=O)Nc2ccc3oc(=O)ccc3c2)cc1 [Compound 8, 4-(tert-butyl)-N-(2-oxo-2H-chromen-6-yl)benzene sulphonamide] | 5.09 µM | 0.30 | 
9 | N#Cc1cccc(S(=O)(=O)Nc2ccc3oc(=O)ccc3c2)c1 [Compound 9, 3-cyano-N-(2-oxo-2H-chromen-6-yl)benzene sulphonamide] | 5.03 µM | 0.32 | 
10 | O=c1ccc2cc(NS(=O)(=O)c3ccccc3Cl)ccc2o1 [Compound 10, 2-chloro-N-(2-oxo-2H-chromen-6-yl)benzenesulphonamide] | 2.21 µM | 0.36 | 
11 | COc1ccccc1S(=O)(=O)Nc1ccc2oc(=O)ccc2c1 [Compound 11, 2-methoxy-N-(2-oxo-2H-chromen-6-yl)benzenesulphonamide] | 0.98 µM | 0.37 | lipophilic efficiency (LipE) ([1]; LipE = −lg (IC50) − logP): 3.9; fold more potent than 1 (BRD4 IC50) ([1]; compared with compound 1): approximately 7 fold
12 | O=c1ccc2cc(NS(=O)(=O)c3ccc(Cl)cc3Cl)ccc2o1 [Compound 12, 2,4-dichloro-N-(2-oxo-2H-chromen-6-yl)benzenesulphonamide] | 1.77 µM | 0.35 | 
13 | O=c1ccc2cc(NS(=O)(=O)c3cccs3)ccc2o1 [Compound 14, N-(2-oxo-2H-chromen-6-yl)thiophene-2-sulphonamide] | 9.26 µM | 0.35 | BRD4 binding activity in words [1]: low binding activity
14 | O=c1ccc2cc(NS(=O)(=O)c3ccc4ccccc4c3)ccc2o1 [Compound 15, N-(2-oxo-2H-chromen-6-yl)naphthalene-2-sulphonamide] | 12.2 µM | 0.28 | BRD4 binding activity in words [1]: reduction of affinity
15 | O=c1ccc2cc(NS(=O)(=O)c3ccc4c(c3)CCO4)ccc2o1 [Compound 16, N-(2-oxo-2H-chromen-6-yl)-2,3-dihydrobenzofuran-5-sulphonamide] | 18.4 µM | 0.28 | BRD4 binding activity in words [1]: reduction of affinity
16 | COc1ccc(NS(=O)(=O)c2ccc3oc(=O)ccc3c2)cc1 [Compound 17, N-(4-methoxyphenyl)-2-oxo-2H-chromene-6-sulphonamide] | 32.6 µM |  | fold decrease in potency compared with 7 (BRD4) ([1]; compared with compound 7): ~5 fold
17 | COc1ccccc1S(=O)(=O)Nc1ccc2c(c1)CN(C)C(=O)N2 [PFI-1] |  |  | oral bioavailability (F) [2]: 32%
